Measurements published in patent US20240270855A1, “NEURO-MESENCHYME UNITS CONTROL ILC2 AND OBESITY VIA A BRAIN-ADIPOSE CIRCUIT” (Fundação D. Anna de Sommer Champalimaud e Dr. Carlos Montez …, priority 2021, published 2024).

How the values were obtained:
[1] = system: dopaminergic and noradrenergic neurons; experiment: Chemical sympathetic ablation with 6-OHDA, GAT ILC2 cytokines by flow cytometry; assay type: in vivo, mice
GAT = experiment: Quantitative RT-PCR gene expression in GAT and GAT cell populations after 6-OHDA or clenbuterol; assay type: in vivo, mice; conditions: for expression of IL-33: GAT and PDGFRA+MSCs of treated mice; for Gdnf expression in other mesenchymal counterparts, adipocytes and endothelial cells: GAT cell populations; for expression of IL-25: PDGFRA+MSCs of treated mice; for Gdnf expression in PDGFRA+MSC: sorted GAT cell population; for Gdnf expression in the GAT: total GAT RNA
PDGFRA positive MSC = experiment: RNA sequencing of PDGFRA positive MSC from 6-OHDA-treated mice; assay type: in vivo; conditions: RNAseq, 6-OHDA vs vehicle
RET [2] = molecular target: RET (Homo sapiens, UniProt P07949); conditions: Akeno-Stuart et al., Cancer Res. 2007; cited from earlier work
Sequence of RET (Homo sapiens, UniProt P07949) (P07949 29-1114): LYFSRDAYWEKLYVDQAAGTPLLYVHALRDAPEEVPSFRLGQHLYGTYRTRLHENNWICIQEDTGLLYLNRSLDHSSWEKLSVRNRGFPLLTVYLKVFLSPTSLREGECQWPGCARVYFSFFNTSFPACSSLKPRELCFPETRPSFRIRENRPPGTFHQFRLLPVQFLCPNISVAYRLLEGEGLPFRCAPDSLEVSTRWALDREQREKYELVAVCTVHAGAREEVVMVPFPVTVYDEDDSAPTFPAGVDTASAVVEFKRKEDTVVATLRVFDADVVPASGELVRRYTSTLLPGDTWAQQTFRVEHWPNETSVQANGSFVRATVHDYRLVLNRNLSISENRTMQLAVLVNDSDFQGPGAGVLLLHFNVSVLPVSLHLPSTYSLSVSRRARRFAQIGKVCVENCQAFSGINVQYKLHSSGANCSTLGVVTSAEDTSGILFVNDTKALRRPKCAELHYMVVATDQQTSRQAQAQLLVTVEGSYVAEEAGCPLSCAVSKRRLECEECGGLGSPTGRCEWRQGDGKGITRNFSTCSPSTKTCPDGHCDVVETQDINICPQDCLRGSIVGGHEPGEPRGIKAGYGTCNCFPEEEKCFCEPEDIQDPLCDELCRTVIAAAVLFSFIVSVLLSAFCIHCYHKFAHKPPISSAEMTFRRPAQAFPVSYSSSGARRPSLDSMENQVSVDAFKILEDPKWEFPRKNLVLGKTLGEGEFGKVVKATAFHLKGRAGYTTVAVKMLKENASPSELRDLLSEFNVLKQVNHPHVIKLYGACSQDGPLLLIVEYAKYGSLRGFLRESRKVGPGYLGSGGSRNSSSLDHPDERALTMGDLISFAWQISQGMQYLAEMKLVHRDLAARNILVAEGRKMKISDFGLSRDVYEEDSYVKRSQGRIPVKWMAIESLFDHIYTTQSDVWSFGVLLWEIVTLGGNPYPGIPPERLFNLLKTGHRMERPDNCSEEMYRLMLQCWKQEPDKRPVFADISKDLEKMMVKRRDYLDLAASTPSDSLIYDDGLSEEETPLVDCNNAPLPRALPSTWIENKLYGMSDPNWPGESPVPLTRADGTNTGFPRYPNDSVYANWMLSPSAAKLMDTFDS

DREADD-carrying neurons = experiment: Chemogenetic modulation of GAT neurons (AAV DREADD injected in GAT, then CNO); assay type: in vivo, mice; conditions: for interleukin-33 (Il33) expression: vs contralateral control
RET [3] = conditions: Tokugawa et al., Neurochem Int. 2003; cited from earlier work
[4] = molecular target: T1, beta-2 adrenergic receptor (ADRB2) (Mus musculus, UniProt P18762); experiment: Systemic activation of ADRB2 with clenbuterol, GAT ILC2 cytokines; assay type: in vivo, mice; conditions: clenbuterol in drinking water, 10 mg/kg/day, 8 days
T1 construct: endogenous in cells; host or cells: C57BL/6J mice in vivo
T1 sequence (P18762 whole entry): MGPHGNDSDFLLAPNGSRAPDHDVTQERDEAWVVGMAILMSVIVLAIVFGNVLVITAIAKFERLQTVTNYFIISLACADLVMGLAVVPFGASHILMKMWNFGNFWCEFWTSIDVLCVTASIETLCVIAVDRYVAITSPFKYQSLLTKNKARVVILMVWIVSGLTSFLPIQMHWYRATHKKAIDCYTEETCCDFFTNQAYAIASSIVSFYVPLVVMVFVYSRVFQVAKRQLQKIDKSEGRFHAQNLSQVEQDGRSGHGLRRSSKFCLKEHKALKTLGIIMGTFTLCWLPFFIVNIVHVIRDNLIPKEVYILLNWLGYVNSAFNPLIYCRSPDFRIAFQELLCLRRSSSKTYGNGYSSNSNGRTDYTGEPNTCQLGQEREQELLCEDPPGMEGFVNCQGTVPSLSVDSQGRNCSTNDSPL

purified GAT PDGFRA+MSCs = experiment: In vitro MSC activation with clenbuterol, MSC-derived GDNF; assay type: cell-based, mice; conditions: 10 μg/ml clenbuterol, 16 hours
Protocol: In vitro and in vivo MSC activation: For in vitro experiments, purified GAT PDGFRA+MSCs were cultured in complete DMEM (supplemented with 10% FBS, 1% HEPES, sodium pyruvate, glutamine, streptomycin and penicillin (Corning)) at 37° C. After 2 hours of rest in complete DMEM without FBS, MSCs were stimulated for 16 hours with 10 μg/ml clenbuterol. For RNA analysis, MSCs were lysed using RLT buffer (Qiagen). For GDNF protein analysis, MSCs were incubated with brefeldin A (eBioscience) during clenbuterol stimulation prior to intracellular staining.

[5] = system: GAT explant/ILC2 co-cultures; experiment: GAT explant/ILC2 co-culture with GDNF, Ucp1 expression; assay type: cell-based, mice; conditions: 50 ng/mL, 16 hours, Ret^WT vs Ret^Δ ILC2; RET dependent
Protocol: Quantitative RT-PCR: Total RNA from sorted or cultured cells was extracted using RNeasy micro kit or RNeasy mini kit (Qiagen) according to the manufacturer's protocol. When indicated, total adipose tissue or adipocyte fraction was collected to Trizol (Invitrogen) followed by chloroform and isopropanol RNA extraction, according to the manufacturer's protocol. RNA concentration was determined using Nanodrop Spectrophotometer (Nanodrop Technologies). Quantitative real-time PCR was performed in StepOne and QuantStudio 5 real-time PCR systems (Applied Biosystems) with Hprt and Gapdh as housekeeping genes. Briefly, High Capacity RNA-to-cDNA Kit (Applied Biosystems) were used to retro-transcribe RNA, followed by a pre-amplification PCR using TaqMan PreAmp Master Mix (Applied Biosystems). TaqMan Gene Expression Master Mix (Applied Biosystems) was used in the real-time PCR. TaqMan Gene Expression Assays (Applied Biosystems) were the following: Hprt Mm00446968_m1; Gapdh Mm99999915_g1; […] Mm00439646_m1; […] Mm00434204_m1; Areg Mm01354339_m1; Penk Mm01212875_m1; Ret Mm00436304_m1; Gdnf Mm00599849_m1; Ucp1 Mm01244861_m1; Adrb2 Mm02524224_s1; Il25 Mm00499822_m1; and Il33 Mm00505403_m1. Analysis was performed using the comparative CT method (2^−ΔCT). When comparison or fold change between samples was required, the comparative ΔCT method (2^−ΔΔCT) was applied. […]

[6] = GAT, 6-OHDA 200 mg/kg intraperitoneally 3 days and 1 day before analysis, vs vehicle
[7] = AAV(3D) (activator DREADD), vs sham contralateral control
[8] = AAV(4D) (inhibitor DREADD), vs sham contralateral control

In the case of NCCc1cc(O)c(O)cc1O [6-OHDA, 6-hydroxydopamine], the ILC2 cytokine production ([1]; Adrb2^ΔIl7ra mice) is reported as “still impaired”, the “ILC2-derived IL-13” value [1, 6] is reported as “pronounced reduction” and the “ILC2-derived Met-Enk” value [1, 6] is reported as “pronounced reduction”. The “ILC2-derived interleukin (IL-) 5” value [1, 6] was “pronounced reduction”, the ILC2 cytokine production ([1]; Ret^ΔIl5 mice) was “unperturbed” and the “percentage of CD4 T cells” value ([1]; after 6-OHDA administration) was “no change”. The “expression of IL-33” value (GAT) was “unperturbed”, the “Gdnf expression in other mesenchymal counterparts, adipocytes and endothelial cells” value (GAT) was “unperturbed” and the “expression of IL-25” value (GAT) was “unperturbed”. For the same molecule, the “Gdnf expression in PDGFRA+MSC” value (GAT) was “modulated”, the “Gdnf expression in the GAT” value (GAT) was “modulated” and the “GDNF expression by PDGFRA positive MSC” value (PDGFRA positive MSC) was “significantly reduced”.

For CCN1CCN(Cc2ccc(NC(=O)Nc3ccc(Oc4cc(NC)ncn4)cc3)cc2C(F)(F)F)CC1 [AST 487, 1-[4-[(4-ethylpiperazin-1-yl)methyl]-3-(trifluoromethyl)phenyl]-3-[4-[6-(methylamino)pyrimidin-4-yl]oxyphenyl]urea], the “RET autophosphorylation and activation of downstream effectors” value (RET [2]) is listed as “inhibit RET autophosphorylation”.

In the case of C[N+]1([O-])CCN(C2=Nc3cc(Cl)ccc3Nc3ccccc32)CC1 [CNO, Clozapine-N-oxide], the “GDNF expression in GAT” value (DREADD-carrying neurons; [7]) is reported as “increased”, the ILC2 function (DREADD-carrying neurons; [7]) is reported as “increased” and the “interleukin-33 (Il33) expression” value (DREADD-carrying neurons; AAV(3D)) is reported as “did not affect”. For the same molecule, the “GDNF expression in GAT” value (DREADD-carrying neurons; [8]) was “reduced”, the “innate type 2 cytokines” value (DREADD-carrying neurons; [8]) was “reduced” and the “interleukin-33 (Il33) expression” value (DREADD-carrying neurons; AAV(4D)) was “did not affect”.

For CCN(CC)CCCC(C)Nc1cc(/C=C/c2ccccc2Cl)nc2cc(Cl)ccc12 (centres unmarked) [XIB4035, N(4)-(7-chloro-2-[(E)-2-(2-chloro-phenyl)-vinyl]-quinolin-4-yl)-N(1),N(1)-diethyl-pentane-1,4-diamine], the RET autophosphorylation (RET [3]) is given as “induced RET autophosphorylation”.

With CC(C)(C)NCC(O)c1cc(Cl)c(N)c(Cl)c1 (centres unmarked) [clenbuterol] the “ILC2-derived cytokines in the GAT” value [4] was “increased”, the “expression of IL-33” value (GAT) was “unperturbed” and the “Gdnf expression in other mesenchymal counterparts, adipocytes and endothelial cells” value (GAT) was “unperturbed”. For the same molecule, the “expression of IL-25” value (GAT) was “unperturbed”, the “Gdnf expression in PDGFRA+MSC” value (GAT) was “modulated” and the “Gdnf expression in the GAT” value (GAT) was “modulated”. For the same molecule, the “MSC-derived GDNF” value (purified GAT PDGFRA+MSCs) was “increased”.

B1: GDNF: glial cell-derived neurotrophic factor, a GFRα ligand that activates RET (protein, UniProt P39905 78-211, looked up)
Glial cell line-derived …: SPDKQMAVLPRRERNRQAAAANPENSRGKGRRGQRGKNRGCVLTAIHLNVTDLGLGYETKEELIFRYCSGSCDAAETTYDKILKNLSRNRRLVSDKVGQACCRPIAFDDDLSFLDDNLVYHILRKHSAKRCGCI
For B1, the Ucp1 expression [5] is listed as “efficiently induced” and the RET autophosphorylation (RET [3]) is listed as “induced RET autophosphorylation”.
